Test results published in patent publication US20240409557A1, “5,6-FUSED AND 6,6-FUSED BICYCLIC ALCOHOLS AND ETHERS AND COMPOSITIONS FOR USE AS 15-PROSTAGLANDIN DEHYDROGENASE MODULATORS” (AMGEN INC., priority 2023, published 2024).

Legend:
[1] = target: T1, human recombinant 15-PGDH (Homo sapiens, UniProt P15428); assay: Recombinant 15-PGDH enzymatic inhibition assay (PGDH-Lumi, NADH signal); type: biochemical; conditions: recombinant 15-PGDH; 15 min pre-incubation, 60 min reaction with PGE2 and NAD+, NADH signal
T1 sequence (P15428 1-266): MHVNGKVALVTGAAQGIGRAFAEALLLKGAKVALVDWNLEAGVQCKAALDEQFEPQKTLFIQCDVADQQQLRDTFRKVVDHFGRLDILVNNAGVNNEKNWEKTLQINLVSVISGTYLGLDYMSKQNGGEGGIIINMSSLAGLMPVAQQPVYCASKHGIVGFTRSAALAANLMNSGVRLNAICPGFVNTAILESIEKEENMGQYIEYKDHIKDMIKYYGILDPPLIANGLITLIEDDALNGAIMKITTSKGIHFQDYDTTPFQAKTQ
Method in brief: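 Buffer 50 mM Tris pH 7.5 with 0.01% Tween-20 and […]; compound, 22 two-fold dilutions, pre-incubated with enzyme 15 min before substrate.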

15-PGDH in A549 cells = target: T2, 15-PGDH in A549 cells (Homo sapiens, UniProt P15428); assay: A549 cellular 15-PGDH assay (PGE2 accumulation, HTRF); type: cell-based; conditions: interleukin-stimulated, inhibitor 24 hrs, PGE2 by competitive HTRF, read-out: A549 Cell Assay IC50
T2 construct: endogenous in cells; host or cells: A549
T2 sequence (P15428 1-266): T1 sequence (P15428 1-266)
Method in brief: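 Supernatant PGE2 was quantified by competitive HTRF, in which sample PGE2 blocks FRET between a europium cryptate-labelled antibody and labelled PGE2. It came from A549 epithelial cells induced with IL-13. IC50s were calculated from the inversely proportional signal.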

| SMILES | IC50 [1] | IC50 (15-PGDH in A549 cells) |
| --- | --- | --- |
| [2H]C(O)(c1cc2ccc(-c3cnc4nn(C)cc4c3)nc2s1)C1CCOCC1 (stereo not drawn) [Compound B66, (6-(2-methyl-2H-pyrazolo[3,4-b]pyridin-5-yl)thieno[2,3-b]pyridin-2-yl)(tetrahydro-2H-pyran-4-yl)methan-d-ol] | 0.948 nM | 0.829 nM |
| Cn1nnc2cc(-c3ccc4cc([C@H](O)C5CC(F)(F)C5)sc4n3)cnc21 [Compound B82R, (R)-(3,3-difluorocyclobutyl)(6-(3-methyl-3H-[1,2,3]triazolo[4,5-b]pyridin-6-yl)thieno[2,3-b]pyridin-2-yl)methanol] | 0.398 nM | 0.0124 nM |
| Cn1cc2cc(-c3cnc4cc([C@H](O)C5CC(F)(F)C5)sc4n3)cnc2n1 [Compound B92R, (R)-(3,3-difluorocyclobutyl)(3-(2-methyl-2H-pyrazolo[3,4-b]pyridin-5-yl)thieno[2,3-b]pyrazin-6-yl)methanol] | 0.511 nM | 0.409 nM |
| Cn1cc2cc(-c3cnc4cc([C@@H](O)C5CC(F)(F)C5)sc4n3)cnc2n1 [Compound B92S, (S)-(3,3-difluorocyclobutyl)(3-(2-methyl-2H-pyrazolo[3,4-b]pyridin-5-yl)thieno[2,3-b]pyrazin-6-yl)methanol] | 5.14 nM | 3.44 nM |
| Cn1cc2cc(-c3ccc4cc(C5(O)CC(F)(F)C5)sc4n3)cnc2n1 [Compound C5, 3,3-difluoro-1-(6-(2-methyl-2H-pyrazolo[3,4-b]pyridin-5-yl)thieno[2,3-b]pyridin-2-yl)cyclobutanol] | 0.371 nM | 1.69 nM |
| Cn1cc2cc(-c3ccc4cc(C5(O)CCC(F)(F)CC5)sc4n3)cnc2n1 [Compound C15, 4,4-difluoro-1-(6-(2-methyl-2H-pyrazolo[3,4-b]pyridin-5-yl)thieno[2,3-b]pyridin-2-yl)cyclohexanol] | 2.85 nM | 12.8 nM |
| Cn1cc2cc(-c3ccc4cc(C5(O)CCC5)sc4n3)cnc2n1 [Compound C21, 1-(6-(2-methyl-2H-pyrazolo[3,4-b]pyridin-5-yl)thieno[2,3-b]pyridin-2-yl)cyclobutanol] | 1.76 nM | 18.9 nM |
| Cn1cc2cc(-c3cc(-c4ccnn4C)c4cc(C(C)(O)C5CCC5)sc4n3)cnc2n1 (centres unmarked) [Compound C23, 1-cyclobutyl-1-(6-(2-methyl-2H-pyrazolo[3,4-b]pyridin-5-yl)-4-(1-methyl-1H-pyrazol-5-yl)thieno[2,3-b]pyridin-2-yl)ethanol] | 0.543 nM | 4.77 nM |
| Cn1cc2cc(-c3ccc4cc(C5(O)CC6(CCC6)C5)sc4n3)cnc2n1 [Compound C25, 2-(6-(2-methyl-2HI-pyrazolo[3,4-b]pyridin-5-yl)thieno[2,3-b]pyridin-2-yl)spiro[3.3]heptan-2-ol] | 0.332 nM | 0.14 nM |
| Cn1cc2cc(-c3ccc4cc(C5(O)CC(C)(C)C5)sc4n3)cnc2n1 [Compound C26, 3,3-dimethyl-1-(6-(2-methyl-2H-pyrazolo[3,4-b]pyridin-5-yl)thieno[2,3-b]pyridin-2-yl)cyclobutanol] | 0.273 nM | 0.0601 nM |
| Cn1cc2cc(-c3ccc4cc(C5(O)CC6(CC(F)(F)C6)C5)sc4n3)cnc2n1 [Compound C27, 6,6-difluoro-2-(6-(2-methyl-2H-pyrazolo[3,4-b]pyridin-5-yl)thieno[2,3-b]pyridin-2-yl)spiro[3.3]heptan-2-ol] | 0.379 nM | 0.0582 nM |
| Cn1cc2cc(-c3ccc4cc(C5(O)CC6(COC6)C5)sc4n3)cnc2n1 [Compound C28] | 0.472 nM | 0.452 nM |
| Cn1cc2cc(-c3ccc4cc([C@]5(O)C[C@@H](C(F)(F)F)C5)sc4n3)cnc2n1 [Compound C29C, cis-1-(6-(2-methyl-2H-pyrazolo[3,4-b]pyridin-5-yl)thieno[2,3-b]pyridin-2-yl)-3-(trifluoromethyl)cyclobutanol] | 0.3 nM | 0.0513 nM |
| Cn1cc2cc(-c3ccc4cc([C@]5(O)C[C@@H](C(F)F)C5)sc4n3)cnc2n1 [Compound C30C, cis-3-(difluoromethyl)-1-(6-(2-methyl-2H-pyrazolo[3,4-b]pyridin-5-yl)thieno[2,3-b]pyridin-2-yl)cyclobutanol] | 0.278 nM | 0.137 nM |
| CO[C@H]1C[C@](O)(c2cc3ccc(-c4cnc5nn(C)cc5c4)nc3s2)C1 [Compound C31C, cis-3-methoxy-1-(6-(2-methyl-2H-pyrazolo[3,4-b]pyridin-5-yl)thieno[2,3-b]pyridin-2-yl)cyclobutanol] | 0.356 nM | 0.157 nM |
| CCn1cc2cc(-c3ccc4cc(C5(O)CC(F)(F)C5)sc4n3)cnc2n1 [Compound C32, 1-(6-(2-ethyl-2H-pyrazolo[3,4-b]pyridin-5-yl)thieno[2,3-b]pyridin-2-yl)-3,3-difluorocyclobutanol] | 0.369 nM | 0.255 nM |
| Cn1cnc2cc(-c3ccc4cc(C5(O)CC(F)(F)C5)sc4n3)cnc21 [Compound C33, 3,3-difluoro-1-(6-(3-methyl-3H-imidazo[4,5-b]pyridin-6-yl)thieno[2,3-b]pyridin-2-yl)cyclobutanol] | 2.55 nM | 1.08 nM |
| Cc1nc2ncc(-c3ccc4cc(C5(O)CC(F)(F)C5)sc4n3)cc2o1 [Compound C34, 3,3-difluoro-1-(6-(2-methyl[1,3]oxazolo[4,5-b]pyridin-6-yl)thieno[2,3-b]pyridin-2-yl)cyclobutanol] | 0.78 nM | 1.35 nM |
| Cc1nc2cc(-c3ccc4cc(C5(O)CC(F)(F)C5)sc4n3)cnc2[nH]1 [Compound C35, 3,3-difluoro-1-(6-(2-methyl-3H-imidazo[4,5-b]pyridin-6-yl)thieno[2,3-b]pyridin-2-yl)cyclobutanol] | 0.832 nM | 1.35 nM |
| OC1(c2cc3ccc(-c4cnc5[nH]ncc5c4)nc3s2)CC(F)(F)C1 [Compound C36, 3,3-difluoro-1-(6-(1H-pyrazolo[3,4-b]pyridin-5-yl)thieno[2,3-b]pyridin-2-yl)cyclobutanol] | 0.756 nM | 0.348 nM |
| Cc1cn2cc(-c3ccc4cc(C5(O)CC(F)(F)C5)sc4n3)ccc2n1 [Compound C37, 3,3-difluoro-1-(6-(2-methylimidazo[1,2-a]pyridin-6-yl)thieno[2,3-b]pyridin-2-yl)cyclobutanol] | 9.01 nM | 2.28 nM |
| Nc1ncc(-c2ccc3cc(C4(O)CC(F)(F)C4)sc3n2)cn1 [Compound C38, 1-(6-(2-amino-5-pyrimidinyl)thieno[2,3-b]pyridin-2-yl)-3,3-difluorocyclobutanol] | 4.59 nM | 3.75 nM |
| Cc1nc2ccc(-c3ccc4cc(C5(O)CC(F)(F)C5)sc4n3)cc2o1 [Compound C39, 3,3-difluoro-1-(6-(2-methyl-1,3-benzoxazol-6-yl)thieno[2,3-b]pyridin-2-yl)cyclobutanol] | 10 nM | 2.87 nM |
| Cn1cc2cc(-c3ccc4cc([C@]5(O)C[C@@H](F)C5)sc4n3)cnc2n1 [Compound C40C, cis-3-fluoro-1-(6-(2-methyl-2H-pyrazolo[3,4-b]pyridin-5-yl)thieno[2,3-b]pyridin-2-yl)cyclobutanol] | 0.742 nM | 1.22 nM |
| Cn1cc2cc(-c3ccc4cc([C@]5(O)C[C@H](F)C5)sc4n3)cnc2n1 [Compound C40T, trans-3-fluoro-1-(6-(2-methyl-2H-pyrazolo[3,4-b]pyridin-5-yl)thieno[2,3-b]pyridin-2-yl)cyclobutanol] | 6.58 nM | 3.36 nM |
